Where two headings read alike, the source gives them in different places.
Columns and labels:
[1] = test system: H2122; assay: Cell viability dose-response, H2122; type: cell-based, human; conditions: Homo sapiens
In short: (§1)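 Viability read as total ATP (Cell Titer Glo) following 4 days' compound exposure, with IC50 derived from dose-response curves. Duplicate 12-point series, top concentration 50 micromolar with 3-fold steps, on cells seeded at 15% confluence in RPMI-1640, 5% FBS, 2 mM L-glutamine.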

[2] = test system: 12 lung adenocarcinoma cell lines; assay: Proliferation of the panel of 12 lung adenocarcinoma cell lines; type: cell-based, human; conditions: Homo sapiens; read-out: IC50 against 10 other cell lines, including the normal line
Description: (§2) FIG. 6A. […] Cell viability is plotted vs. compound concentration. Compound was added to cells plated at 15% confluence in 96-well plates in RPMI-1640 media supplemented with 5% Fetal Bovine Serum and 2 mM L-Glutamine. After 4 days of incubation, ATP levels were measured using Cell Titer Glo (Promega). Data are presented as the average of 2 replicates ±SEM.
To discover selective agents, twelve cell lines of diverse genotype were selected for analysis. 108 lung cancer cell lines were initially clustered into six groups based on mRNA expression of genes that underwent frequent copy number variation. Two cell lines were chosen from each group for high throughput chemical screening. All 12 of the chosen cell lines were derived from lung adenocarcinomas, eliminating both lineage and histology as confounders. None of the cell lines chosen for screening harbored EGFR mutations or ALK rearrangements, so that the final set represented a collection of diverse lung adenocarcinoma genotypes for which there are no targeted therapy.
The proliferative impact of each compound in the library was assayed by analyzing total ATP four days after administration of 2.5 μM in a single well. This first pass yielded 15,843 toxins defined as a compound where ATP levels were […] three standard deviations below the mean for at least one cell line. For each of these putative toxins, the average effect on proliferation was retested on each cancer cell line and a non-cancerous immortalized HBEC line (control), yielding a confirmation dataset.
In addition, N-acyl benzothiazoles was also discovered, such as 4-amino-N-(6-methoxybenzo[d]thiazol-2-yl)benzamide (ATB). We compared the proliferation of 12 lung adenocarcinoma cell lines and three HBEC lines after the addition of ATB.
We subsequently synthesized various derivatives that are both selective and potent (Tables 1 and 2). One leading candidate is a benzothiazole, SW202857, that inhibits proliferation in three of 12 adenocarcinoma cell lines at concentrations less than 10 nM.

[3] = test system: HBEC30KT; assay: Cell viability (ATP, Cell Titer Glo, 4 days), HBEC30KT; type: cell-based, human
[4] = test system: H1155; assay: Cell viability dose-response, H1155; type: cell-based; conditions: Homo sapiens, NCI-H1155
Description: as §2
(§3) Selectivity may be measured by the half maximal inhibitory concentration (IC50), which, as used herein, is a measure of the effectiveness of a compound in killing cells. This quantitative measure indicates how much of a particular compound is needed to kill a particular cell population by half (e.g., as indicated by the amount of ATP). […] The IC50 can be determined by constructing a dose-response curve. The lower the IC50, the higher the potency, and the greater the difference between IC50 values for different cell lines (e.g., sensitive lines vs. insensitive lines, and sensitive lines vs. normal lines) the greater the selectivity. […]
(§4) With this information, we synthesized and tested a series of small molecules derived in conception from the oxalamide and chromone scaffold including N-acyl ureas, as shown in Tables 6-8. Each compound was tested in a 12-point dose-response study starting at 50 micromolar and decreasing in 3-fold increments to sub-nanomolar concentrations, in duplicate. Additionally, one or more additional cell line was tested in the same way.

[5] = test system: H1395; assay: Cell viability dose-response, H1395; type: cell-based; conditions: Homo sapiens, NCI-H1395
Description: as §2, §3, §4

[6] = test system: H1819; assay: Cell viability dose-response, H1819; type: cell-based, human; conditions: Homo sapiens
In short: as §1

[7] = test system: H1993; assay: Cell viability dose-response, H1993; type: cell-based; conditions: Homo sapiens, NCI-H1993
Description: as §2, §3, §4

[8] = test system: H2009; assay: Cell viability dose-response, H2009; type: cell-based, human; conditions: Homo sapiens, NCI-H2009
In short: (§5)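 Cells were plated at 15% confluence in RPMI-1640 with 5% FBS and 2 mM L-glutamine, then exposed to compound for 4 days. Viability was read as cellular ATP by CellTiter-Glo luminescence. Values are means of 2 replicates ±SEM, and IC50 comes from the dose-response curve.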

[9] = test system: H2073; assay: Cell viability dose-response, H2073; type: cell-based, human; conditions: Homo sapiens
In short: as §5

[10] = test system: H460; assay: Cell viability dose-response, H460; type: cell-based; conditions: Homo sapiens, NCI-H460
Description: as §2, §3, §4

[11] = test system: HCC366; assay: Cell viability dose-response, HCC366; type: cell-based; conditions: Homo sapiens
Description: as §2, §3, §4

[12] = test system: HCC4017; assay: Cell viability dose-response, HCC4017; type: cell-based, human
Description: as §2, §3, §4

[13] = test system: HCC44; assay: Cell viability dose-response, HCC44; type: cell-based, human; conditions: Homo sapiens
In short: as §5

[14] = test system: HCC95; assay: Cell viability dose-response, HCC95; type: cell-based; conditions: Homo sapiens
Description: as §2, §3, §4

[15] = Homo sapiens, Tables 3 and 4, read-out: HBEC30KT IC50
[16] = Tables 3 and 4, read-out: IC50 (uM) vs indicated non-small cell lung cancer cell line H1155
[17] = Tables 3 and 4, read-out: IC50 (uM) vs indicated non-small cell lung cancer cell line H1395
[18] = NCI-H1819, Tables 3 and 4, read-out: IC50 (uM) vs indicated non-small cell lung cancer cell line H1819
[19] = Tables 3 and 4, read-out: IC50 (uM) vs indicated non-small cell lung cancer cell line H1993
[20] = Tables 3 and 4, read-out: IC50 (uM) vs indicated non-small cell lung cancer cell line H2009
[21] = NCI-H2073, Tables 3 and 4, read-out: IC50 (uM) vs indicated non-small cell lung cancer cell line H2073
[22] = NCI-H2122, Tables 3 and 4, read-out: IC50 (uM) vs indicated non-small cell lung cancer cell line H2122
[23] = Tables 3 and 4, read-out: IC50 (uM) vs indicated non-small cell lung cancer cell line H460
[24] = Tables 3 and 4, read-out: IC50 (uM) vs indicated non-small cell lung cancer cell line HCC366
[25] = Homo sapiens, HCC4017, Tables 3 and 4, read-out: IC50 (uM) vs indicated non-small cell lung cancer cell line HCC4017
[26] = HCC44, Tables 3 and 4, read-out: IC50 (uM) vs indicated non-small cell lung cancer cell line HCC44
[27] = Tables 3 and 4, read-out: IC50 (uM) vs indicated non-small cell lung cancer cell line HCC95

Row | Compound | IC50 [3, 15] [µM] | IC50 [4, 16] [µM] | IC50 [5, 17] [µM] | IC50 [6, 18] [µM] | IC50 [7, 19] [µM] | IC50 [8, 20] [µM] | IC50 [9, 21] [µM] | IC50 [1, 22] [µM] | IC50 [10, 23] [µM] | IC50 [11, 24] [µM] | IC50 [12, 25] [µM] | IC50 [13, 26] [µM] | IC50 [14, 27] [µM] | also measured
1 | COc1ccc2nc(NC(=O)c3ccc(N)cc3)sc2c1 [ATB, 4-amino-N-(6-methoxybenzo[d]thiazol-2-yl)benzamide] | – | – | – | – | – | – | – | – | – | – | – | – | – | IC50 ([1]; NCI-H2122, read-out: IC50 against the most sensitive cell line (H2122)): 0.048 µM; IC50 [2]: > 1 µM
2 | COc1ccc2nc(NC(=O)c3ccc(N)cc3)sc2c1 [SW001286] | 130 | 25 | 35 | 24 | 27 | 22 | 0.3 | 0.048 | 0.4 | 35 | 35 | 3 | 2 | IC50 ([1]; NCI-H2122, Table 9, competitor, read-out: IC50 to H2122 cells): 0.04 µM
3 | O=C(Nc1nc2ccccc2s1)c1cccnc1 [SW006981] | 272 | 95 | 51 | 50 | 21.5 | 325 | 12.5 | 0.26 | 180 | 85 | 76 | 63.7 | 110 | –
4 | O=C(Nc1cccc(NC(=O)c2sc3ccccc3c2Cl)c1)c1cccc(Cl)c1 [SW023441] | – | 29 | 10.5 | 16.4 | 11 | 9.4 | 6.2 | 0.39 | 48 | 23 | – | 32 | 14 | IC50 ([3]; Tables 3 and 4, read-out: HBEC30KT IC50): 30 µM; IC50 ([12]; Tables 3 and 4, read-out: IC50 (uM) vs indicated non-small cell lung cancer cell line HCC4017): 18 µM
5 | O=C(c1ccccc1)c1ccc(NC(=O)c2sc3ccccc3c2Cl)cc1 [SW025780] | 51 | 33 | 99 | 27 | 31 | 60 | 0.08 | 0.007 | 46 | 248 | 56 | 64 | 7.7 | –
6 | COc1ccc(CCNC(=O)C(=O)Nc2ccc(C)c(C)c2)cc1 [SW027949] | – | – | – | – | – | – | – | – | – | – | – | – | – | IC50 ([3]; Homo sapiens, 12-point dose-response starting at 50 micromolar, 3-fold increments, in duplicate, read-out: toxicity data, HBEC30KT): 41.5 µM; IC50 ([4]; 12-point dose-response starting at 50 micromolar, 3-fold increments, in duplicate, read-out: toxicity data, H1155): 50 µM; IC50 ([5]; 12-point dose-response starting at 50 micromolar, 3-fold increments, in duplicate, read-out: toxicity data, H1395): 50 µM; IC50 ([6]; NCI-H1819, 12-point dose-response starting at 50 micromolar, 3-fold increments, in duplicate, read-out: toxicity data, H1819): ≥ 50 µM; IC50 ([7]; 12-point dose-response starting at 50 micromolar, 3-fold increments, in duplicate, read-out: toxicity data, H1993): 50 µM; IC50 ([8]; 12-point dose-response starting at 50 micromolar, 3-fold increments, in duplicate, read-out: toxicity data, H2009): ≥ 50 µM; IC50 ([9]; NCI-H2073, 12-point dose-response starting at 50 micromolar, 3-fold increments, in duplicate, read-out: toxicity data, H2073): ≥ 50 µM; IC50 ([1]; NCI-H2122, 12-point dose-response starting at 50 micromolar, 3-fold increments, in duplicate, read-out: toxicity data, H2122): 0.7 µM; IC50 ([10]; 12-point dose-response starting at 50 micromolar, 3-fold increments, in duplicate, read-out: toxicity data, H460): 1.31 µM; IC50 ([11]; 12-point dose-response starting at 50 micromolar, 3-fold increments, in duplicate, read-out: toxicity data, HCC366): 50 µM; IC50 ([12]; Homo sapiens, HCC4017, 12-point dose-response starting at 50 micromolar, 3-fold increments, in duplicate, read-out: toxicity data, HCC4017): ≥ 50 µM; IC50 ([13]; HCC44, 12-point dose-response starting at 50 micromolar, 3-fold increments, in duplicate, read-out: toxicity data, HCC44): ≥ 50 µM; IC50 ([14]; 12-point dose-response starting at 50 micromolar, 3-fold increments, in duplicate, read-out: toxicity data, HCC95): 0.17 µM

Source: patent US9789096B2, “Methods and compositions for selective and targeted cancer therapy” (Board of Regents of the University of Texas System, priority 2013, dated 2017)
